Data set [1] is described as follows: Drug metabolism in insect microsomes at 10 uM after 120 mins by LC-MS/MS analysis in presence of NADPH. It counts as ADME, Microsome. Conditions: read-out: Compound recovery.
For data set [2], the target named is T1, Cytochrome P450 2J2 (Homo sapiens, UniProt P51589).
T1 sequence (P51589 whole entry): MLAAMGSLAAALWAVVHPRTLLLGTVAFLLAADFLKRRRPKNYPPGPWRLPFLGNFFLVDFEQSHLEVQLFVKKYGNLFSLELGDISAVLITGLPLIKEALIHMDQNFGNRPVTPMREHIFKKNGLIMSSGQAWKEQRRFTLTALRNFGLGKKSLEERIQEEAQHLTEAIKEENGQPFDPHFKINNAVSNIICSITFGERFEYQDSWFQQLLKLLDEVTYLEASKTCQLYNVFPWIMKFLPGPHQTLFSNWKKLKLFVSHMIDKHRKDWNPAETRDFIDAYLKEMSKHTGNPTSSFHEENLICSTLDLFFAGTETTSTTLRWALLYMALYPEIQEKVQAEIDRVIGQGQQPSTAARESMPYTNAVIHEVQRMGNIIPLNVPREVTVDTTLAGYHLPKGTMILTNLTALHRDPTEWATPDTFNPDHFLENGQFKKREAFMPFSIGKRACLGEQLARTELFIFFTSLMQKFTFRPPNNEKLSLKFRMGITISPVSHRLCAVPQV
The experiment in a line: Drug metabolism assessed as human recombinant CYP2J2-mediated 2-hydroxyethyl (1R,3aR,4aR,6R,8aR,9S,9aS)-9-((E)-2-(5-(3-fluorophenyl)pyridin-2-yl)vinyl)-1-methyl-3-oxododecahydronaphtho[2,3-c]furan-6-ylcarbamate formation at 25 uM after 120 mins by LC-MS/MS analysis in presence of astemizole. To be noted: recombinant enzyme, 2 h. In kind it is ADME.

Data set [3] deals with T2, Cytochrome P450 2B6 (Homo sapiens, UniProt P20813).
T2 sequence (P20813 whole entry): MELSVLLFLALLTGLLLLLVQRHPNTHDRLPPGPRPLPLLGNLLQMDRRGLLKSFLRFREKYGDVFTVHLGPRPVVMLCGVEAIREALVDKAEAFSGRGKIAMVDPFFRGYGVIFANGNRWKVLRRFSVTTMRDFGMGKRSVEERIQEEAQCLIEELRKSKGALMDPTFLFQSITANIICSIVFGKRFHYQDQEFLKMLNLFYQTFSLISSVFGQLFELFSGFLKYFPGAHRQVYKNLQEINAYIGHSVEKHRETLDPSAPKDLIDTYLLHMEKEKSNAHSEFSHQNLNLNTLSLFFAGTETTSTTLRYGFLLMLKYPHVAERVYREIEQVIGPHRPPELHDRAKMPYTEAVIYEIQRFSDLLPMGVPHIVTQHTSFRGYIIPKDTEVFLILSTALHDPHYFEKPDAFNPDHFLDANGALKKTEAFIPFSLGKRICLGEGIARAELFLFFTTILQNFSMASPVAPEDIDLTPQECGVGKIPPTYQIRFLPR
In words: Activity of human recombinant CYP2B6 assessed as enzyme-mediated drug metabolism treated with 25 uM vorapaxar after 120 mins by LC-MS/MS analysis in presence of NADPH. It counts as ADME. To be noted: 2 h.

The target in data set [4] is T3, Cytochrome P450 4F3 (Homo sapiens, UniProt Q08477).
T3 sequence (Q08477 whole entry): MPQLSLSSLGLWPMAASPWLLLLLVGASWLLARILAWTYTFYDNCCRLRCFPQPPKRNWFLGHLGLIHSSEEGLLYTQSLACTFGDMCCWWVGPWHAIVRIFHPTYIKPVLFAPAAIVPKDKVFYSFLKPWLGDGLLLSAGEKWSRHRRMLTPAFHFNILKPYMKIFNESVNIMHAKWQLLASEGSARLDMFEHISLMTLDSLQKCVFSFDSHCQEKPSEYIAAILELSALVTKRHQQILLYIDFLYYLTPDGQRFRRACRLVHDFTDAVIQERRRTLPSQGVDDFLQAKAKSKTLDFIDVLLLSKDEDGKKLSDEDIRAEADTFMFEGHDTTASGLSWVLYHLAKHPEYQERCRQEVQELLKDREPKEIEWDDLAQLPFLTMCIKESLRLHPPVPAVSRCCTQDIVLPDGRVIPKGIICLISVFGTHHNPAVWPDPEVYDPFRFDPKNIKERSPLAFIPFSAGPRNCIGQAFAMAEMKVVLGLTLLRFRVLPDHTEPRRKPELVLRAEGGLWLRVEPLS
In words: Activity of human recombinant CYP4F3A assessed as enzyme-mediated drug metabolism treated with 25 uM vorapaxar after 120 mins by LC-MS/MS analysis in presence of NADPH. In kind it is ADME. Conditions: 2 h.

Data set [5] concerns the target Cytochrome P450 2A6 (Homo sapiens, UniProt P11509). In words: Activity of human recombinant CYP2A6 assessed as enzyme-mediated drug metabolism treated with 25 uM vorapaxar after 120 mins by LC-MS/MS analysis in presence of NADPH. It counts as ADME. To be noted: 2 h.
Data set [6] addresses Cytochrome P450 4A11 (Homo sapiens, UniProt Q02928). In words: Activity of human recombinant CYP4A11 assessed as enzyme-mediated drug metabolism treated with 25 uM vorapaxar after 120 mins by LC-MS/MS analysis in presence of NADPH. In kind it is ADME. To be noted: 2 h.
In data set [7] the target is T4, Cytochrome P450 1A1 (Homo sapiens, UniProt P04798).
T4 sequence (P04798 whole entry): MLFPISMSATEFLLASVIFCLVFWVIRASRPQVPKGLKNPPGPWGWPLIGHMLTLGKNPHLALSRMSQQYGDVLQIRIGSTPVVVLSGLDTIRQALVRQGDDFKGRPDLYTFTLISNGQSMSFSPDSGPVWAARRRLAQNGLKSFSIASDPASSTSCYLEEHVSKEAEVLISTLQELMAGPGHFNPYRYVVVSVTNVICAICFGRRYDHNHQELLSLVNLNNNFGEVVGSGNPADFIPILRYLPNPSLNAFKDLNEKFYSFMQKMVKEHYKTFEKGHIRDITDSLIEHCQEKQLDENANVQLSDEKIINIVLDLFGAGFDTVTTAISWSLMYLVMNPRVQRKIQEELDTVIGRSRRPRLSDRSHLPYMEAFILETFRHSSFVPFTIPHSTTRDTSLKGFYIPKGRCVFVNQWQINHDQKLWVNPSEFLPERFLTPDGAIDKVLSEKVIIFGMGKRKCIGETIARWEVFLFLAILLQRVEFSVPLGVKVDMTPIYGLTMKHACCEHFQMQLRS
In words: Activity of human recombinant CYP1A1 assessed as enzyme-mediated 2-hydroxyethyl (1R,3aR,4aR,6R,8aR,9S,9aS)-9-((E)-2-(5-(3-fluorophenyl)pyridin-2-yl)vinyl)-1-methyl-3-oxododecahydronaphtho[2,3-c]furan-6-ylcarbamate formation at 25 uM after 120 mins by LC-MS/MS analysis in presence of NADPH. It counts as ADME. To be noted: 2 h.

The target in data set [8] is T1, Cytochrome P450 2J2. The experiment in a line: Activity of human recombinant CYP2J2 assessed as enzyme-mediated 2-hydroxyethyl (1R,3aR,4aR,6R,8aR,9S,9aS)-9-((E)-2-(5-(3-fluorophenyl)pyridin-2-yl)vinyl)-1-methyl-3-oxododecahydronaphtho[2,3-c]furan-6-ylcarbamate formation at 25 uM after 120 mins by LC-MS/MS analysis in presence of NADPH. It counts as ADME. To be noted: 2 h.

Chain of Cytochrome P450 2A6 (P11509 whole entry): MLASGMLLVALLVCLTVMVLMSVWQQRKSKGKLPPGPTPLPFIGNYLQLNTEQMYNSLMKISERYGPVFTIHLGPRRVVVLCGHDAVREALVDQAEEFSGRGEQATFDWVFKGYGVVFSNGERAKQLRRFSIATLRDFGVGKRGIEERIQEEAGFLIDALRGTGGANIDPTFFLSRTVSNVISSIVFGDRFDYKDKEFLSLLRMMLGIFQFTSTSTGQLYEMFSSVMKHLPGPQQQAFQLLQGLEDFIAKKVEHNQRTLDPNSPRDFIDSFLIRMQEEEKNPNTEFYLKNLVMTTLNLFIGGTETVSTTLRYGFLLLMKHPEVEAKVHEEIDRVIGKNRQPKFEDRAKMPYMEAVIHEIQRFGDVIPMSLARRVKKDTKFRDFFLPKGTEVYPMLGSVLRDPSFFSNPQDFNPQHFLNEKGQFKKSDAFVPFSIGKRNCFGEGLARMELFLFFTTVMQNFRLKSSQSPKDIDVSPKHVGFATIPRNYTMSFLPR
Chain of Cytochrome P450 4A11 (Q02928 whole entry): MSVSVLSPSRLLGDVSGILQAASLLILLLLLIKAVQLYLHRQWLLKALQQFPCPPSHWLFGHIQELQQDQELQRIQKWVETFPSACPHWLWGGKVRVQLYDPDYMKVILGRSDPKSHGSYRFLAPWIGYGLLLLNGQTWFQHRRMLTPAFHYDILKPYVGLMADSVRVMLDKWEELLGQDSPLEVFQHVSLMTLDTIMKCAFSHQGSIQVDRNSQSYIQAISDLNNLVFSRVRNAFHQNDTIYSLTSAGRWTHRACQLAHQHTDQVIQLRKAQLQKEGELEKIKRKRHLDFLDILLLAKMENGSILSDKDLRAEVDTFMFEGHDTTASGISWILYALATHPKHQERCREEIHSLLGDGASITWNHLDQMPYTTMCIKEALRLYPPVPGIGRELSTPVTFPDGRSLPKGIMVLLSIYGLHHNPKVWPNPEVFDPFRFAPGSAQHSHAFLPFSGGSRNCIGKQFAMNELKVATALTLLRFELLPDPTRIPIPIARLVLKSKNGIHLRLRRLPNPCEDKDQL

Turning to `CCOC(=O)N[C@@H]1CC[C@@H]2[C@@H](C1)C[C@H]1C(=O)O[C@H](C)[C@H]1[C@H]2/C=C/c1ccc(-c2cccc(F)c2)cn1` [VORAPAXAR], the remaining at 2 h, 10 µM in data set [1] stood at 98.7%. Besides, the Drug metabolism result in data set [2] is recorded as “metabolite_not_detected”.
For the compound `C[C@H]1OC(=O)[C@@H]2C[C@@H]3C[C@H](NC(=O)OCCO)CC[C@H]3[C@H](/C=C/c3ccc(-c4cccc(F)c4)cn3)[C@H]12`, the Drug metabolism result in data set [3], in data set [4], in data set [5] and in data set [6] was “metabolite_detected” each time.
Take `CCOC(=O)N[C@@H]1CC[C@@H]2[C@@H](C1)C[C@H]1C(=O)O[C@H](C)[C@H]1[C@H]2/C=[14CH]/c1ccc(-c2cccc(F)c2)cn1`: the Drug metabolism entry in data set [7] and in data set [8] was “metabolite_detected” each time.

For the origin of these results see ChEMBL document CHEMBL3526033, “Identification of human liver cytochrome P450 enzymes involved in the metabolism of SCH 530348 (Vorapaxar), a potent oral thrombin protease-activated receptor 1 antagonist” (Drug Metab Dispos, 2011).
